Results published in patent US20080125453A1 (TIBER LABORATORIES, LLC, priority 2001, published 2008).
Structures can show the parent of a compound that is named as a salt.

Key:
[1] = type: physicochemical
Method: The salt of the active ingredient, corresponding to an amount of free base present in a final batch size of 1 kg was dissolved in 100 ml of purified water. 120 ml of purified water was placed in a 600 ml beaker and stirred. While stirring, 3 g of MAS was added in small portions to obtain a dispersion. The amount of MAS used is a part of the total amount of MAS to be used in the formulation. Once the MAS was dispersed, tannic acid was added to the mixture and stirred to form a uniform dispersion. Three different batches of the MAS/tannic acid dispersion in purified water were prepared for each active. In the three batches, the amount of tannic acid used in the batch may vary from an amount equal to that of the free base, to two time to three times that of the free base present in the initial salt solution.
The salt solution was then added in small portions, under light stirring, to the MAS/Tannic acid dispersion. After all of the salt solution was added, the volume was made up to 250 ml with purified water and stirring was continued for a period of 10 minutes.
The MAS was used in this step to serve as an adherent or a solid support for the tannic acid molecules to facilitate the conversion process.

[2] = background statement; cited from earlier work

SMILES | solubility in water [2] | also measured
CNC[C@H](O)c1cccc(O)c1 [phenylephrine] | – | solubility of the tannate salt in purified water [1]: partial solubility
COc1ccc(CN(CCN(C)C)c2ccccn2)cc1 [pyrilamine] | – | precipitate formation on addition to MAS/tannic acid dispersion ([1]; purified water, at all three concentrations of tannic acid (1x, 2x, 3x the free base)): copious amounts of precipitate
CNC[C@H](O)c1cccc(O)c1 [Phenylephrine hydrochloride] | freely soluble | –
COc1ccc(CN(CCN(C)C)c2ccccn2)cc1 [Pyrilamine hydrochloride, N-[(4-methoxyphenyl)methyl]-N′,N′-dimethyl- -N-2-pyridinyl-1,2-ethanediamine] | freely soluble | –
COc1ccc(CN(CCN(C)C)c2ccccn2)cc1 [maleate salt, N-[(4-methoxyphenyl)methyl]-N′,N′-dimethyl- -N-2-pyridinyl-1,2-ethanediamine] | slightly soluble | –
